Data reported in the supplement of paper PMC10307832.

compound: CN1CCC(CC1)OC2=CC(=C(C=C2)NC3=NC=C4C(=N3)N(C(=O)N4C)C5CCCC5)OC [AZ3146] + O=C(CCCCCCC(=O)Nc1ccccc1)NO [Vorinostat] (partner 1 µM); assay: relative viability (nuclei count vs DMSO), 5 days (fraction); higher = more cells survive; settings: first compound 0.08 µM
Method in brief: (§1)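 Lung cancer cell lines were seeded in 1536-well plates and dosed by pin tool the next day, with either a single drug or a fixed anchor-drug dose combined with five library-drug doses (not always all listed) spaced in √10 steps. Five days later, one step fixed the cells and stained their nuclei (final 0.05% Triton X-100, 1% formaldehyde, 1 ug/ml Hoechst), and nuclei were counted on 4× images. Relative viability is the nuclei count in treated wells divided by the count in vehicle wells, and each value is the median of duplicate plates.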

Cell Line | relative viability
NCI-H522 | 0.66
PC-14 | 0.538
NCI-H1666 | 0.976
EKVX | 0.608
NCI-H1755 | 0.71
NCI-H2023 | 0.422
SK-LU-1 | 0.746
PC-3 [JPC-3] | 0.554
LOU-NH91 | 0.866
NCI-H647 | 0.537
NCI-H23 | 0.473
EPLC-272H | 0.297
NCI-H2126 | 0.504
HCC-44 | 1.07
LK-2 | 0.159
NCI-H2342 | 0.705
NCI-H1944 | 0.425
NCI-H358 | 0.571
SW 900 | 0.465
NCI-H1395 | 0.66
IA-LM | 0.674
NCI-H1793 | 0.616
NCI-H2170 | 0.815
ABC-1 | 0.618
SK-MES-1 | 1.04
NCI-H727 | 1.01

same assay, conditions: first compound 0.253 µM

Cell Line | relative viability
NCI-H522 | 0.695
PC-14 | 0.745
NCI-H1666 | 1.09
EKVX | 0.81
NCI-H1755 | 0.804
NCI-H2023 | 0.991
HCC-78 | 0.496
SK-LU-1 | 0.854
LOU-NH91 | 0.837
NCI-H647 | 0.426
NCI-H23 | 0.593
EPLC-272H | 0.52
NCI-H2126 | 0.743
HCC-44 | 1.07
LK-2 | 0.243
NCI-H2342 | 0.688
NCI-H1944 | 0.579
NCI-H358 | 0.687
NCI-H1395 | 0.504
IA-LM | 0.872
NCI-H1793 | 0.682
NCI-H2170 | 0.763
ABC-1 | 1.02
SK-MES-1 | 1.17
NCI-H727 | 1.22

same assay, conditions: first compound 0.8 µM

Cell Line | relative viability
NCI-H522 | 0.945
PC-14 | 0.546
NCI-H1666 | 1.01
EKVX | 0.818
NCI-H1755 | 0.599
NCI-H2023 | 0.407
HCC-78 | 0.435
SK-LU-1 | 0.752
PC-3 [JPC-3] | 0.803
LOU-NH91 | 0.968
NCI-H647 | 0.607
NCI-H23 | 0.572
EPLC-272H | 0.299
NCI-H2126 | 0.709
HCC-44 | 1.05
LK-2 | 0.326
NCI-H2342 | 1.01
NCI-H1944 | 0.606
NCI-H358 | 0.631
SW 900 | 0.393
NCI-H1648 | 0.554
IA-LM | 1.01
NCI-H1793 | 0.613
NCI-H2170 | 0.854
ABC-1 | 1.53
SK-MES-1 | 1.14
NCI-H727 | 1.03

same assay, conditions: first compound 2.53 µM

Cell Line | relative viability
NCI-H522 | 0.903
PC-14 | 0.359
NCI-H1666 | 1.09
EKVX | 0.885
NCI-H1755 | 0.789
NCI-H2023 | 0.471
HCC-78 | 0.354
SK-LU-1 | 0.792
PC-3 [JPC-3] | 0.66
LOU-NH91 | 1
NCI-H647 | 0.667
NCI-H23 | 0.769
EPLC-272H | 0.499
NCI-H2126 | 0.835
HCC-44 | 1.12
LK-2 | 0.388
NCI-H2342 | 0.695
NCI-H1944 | 0.616
NCI-H358 | 0.723
SW 900 | 0.48
NCI-H1648 | 0.498
NCI-H1395 | 0.84
IA-LM | 0.924
NCI-H1793 | 0.942
NCI-H2170 | 0.867
ABC-1 | 1.2
SK-MES-1 | 1.19
NCI-H727 | 1.17

same assay, conditions: first compound 8 µM

Cell Line | relative viability
NCI-H522 | 0.835
PC-14 | 0.0815
NCI-H1666 | 0.994
EKVX | 0.681
NCI-H1755 | 0.765
NCI-H2023 | 0.193
HCC-78 | 0.471
SK-LU-1 | 0.504
PC-3 [JPC-3] | 0.713
LOU-NH91 | 0.832
NCI-H647 | 0.186
NCI-H23 | 0.377
EPLC-272H | 0.329
NCI-H2126 | 0.66
HCC-44 | 1.13
LK-2 | 0.389
NCI-H2342 | 0.764
NCI-H1944 | 0.543
NCI-H358 | 0.171
SW 900 | 0.446
NCI-H1648 | 0.634
NCI-H1395 | 0.615
IA-LM | 1.06
NCI-H1793 | 0.573
NCI-H2170 | 0.751
ABC-1 | 1.16
SK-MES-1 | 0.701
NCI-H727 | 1.11

compound: CN1CCC(CC1)OC2=CC(=C(C=C2)NC3=NC=C4C(=N3)N(C(=O)N4C)C5CCCC5)OC [AZ3146] + CC(C)C[C@H](NC(=O)[C@H](Cc1ccccc1)NC(=O)c1cnccn1)B(O)O [Bortezomib] (partner 0.002 µM); assay: as above; settings: first compound 0.08 µM
Method in brief: as §1

Cell Line | relative viability
PC-14 | 0.872
NCI-H1666 | 0.838
EKVX | 1.03
NCI-H1755 | 1.03
NCI-H2023 | 0.938
PC-3 [JPC-3] | 0.806
LOU-NH91 | 1.02
NCI-H647 | 0.918
NCI-H23 | 1.15
EPLC-272H | 0.754
NCI-H2126 | 1.07
HCC-44 | 0.875
Calu-6 | 0.975
EBC-1 | 0.549
NCI-H1299 | 0.965
NCI-H1792 | 0.784
IA-LM | 0.643
NCI-H1703 | 0.213
NCI-H1563 | 0.703
ABC-1 | 0.28
NCI-H727 | 1.02

same assay, conditions: first compound 0.253 µM

Cell Line | relative viability
PC-14 | 0.891
NCI-H1666 | 0.791
EKVX | 1.07
NCI-H1755 | 0.996
NCI-H2023 | 1.05
HCC-78 | 0.471
PC-3 [JPC-3] | 0.84
LOU-NH91 | 0.489
NCI-H647 | 0.941
NCI-H23 | 1.08
EPLC-272H | 0.968
NCI-H2126 | 1.11
HCC-44 | 0.908
Calu-6 | 1.08
EBC-1 | 0.578
NCI-H1299 | 0.965
NCI-H1792 | 1.04
IA-LM | 0.775
NCI-H1703 | 0.485
NCI-H1563 | 0.82
ABC-1 | 0.398
NCI-H727 | 0.953

same assay, conditions: first compound 0.8 µM

Cell Line | relative viability
PC-14 | 0.846
NCI-H1666 | 0.948
EKVX | 1.11
NCI-H1755 | 0.921
NCI-H2023 | 1.03
HCC-78 | 0.271
SK-LU-1 | 1.02
PC-3 [JPC-3] | 0.83
LOU-NH91 | 0.533
NCI-H647 | 0.996
NCI-H23 | 1.21
EPLC-272H | 0.879
NCI-H2126 | 1.09
HCC-44 | 0.881
Calu-6 | 0.999
EBC-1 | 0.541
NCI-H1299 | 1.05
NCI-H1792 | 1.05
IA-LM | 0.759
NCI-H1703 | 0.292
NCI-H1563 | 0.826
ABC-1 | 0.247
NCI-H727 | 0.717

same assay, conditions: first compound 2.53 µM

Cell Line | relative viability
PC-14 | 0.997
NCI-H1666 | 0.809
EKVX | 1.04
NCI-H1755 | 1.04
NCI-H2023 | 0.997
HCC-78 | 0.558
SK-LU-1 | 1.15
PC-3 [JPC-3] | 0.959
LOU-NH91 | 0.478
NCI-H647 | 1.21
NCI-H23 | 1.11
EPLC-272H | 0.97
NCI-H2126 | 1.09
HCC-44 | 0.909
Calu-6 | 0.938
EBC-1 | 0.521
NCI-H1299 | 1.01
NCI-H1792 | 0.976
IA-LM | 0.695
NCI-H1703 | 0.275
NCI-H1563 | 1.01
ABC-1 | 0.239
NCI-H727 | 0.934

same assay, conditions: first compound 8 µM

Cell Line | relative viability
PC-14 | 0.721
NCI-H1666 | 0.743
EKVX | 1.26
NCI-H1755 | 0.667
NCI-H2023 | 0.268
HCC-78 | 0.447
SK-LU-1 | 1.5
PC-3 [JPC-3] | 0.859
LOU-NH91 | 0.51
NCI-H647 | 0.405
NCI-H23 | 0.876
EPLC-272H | 1.03
NCI-H2126 | 1.08
HCC-44 | 0.884
Calu-6 | 0.57
EBC-1 | 0.279
NCI-H1299 | 1.01
NCI-H1792 | 1
IA-LM | 0.264
NCI-H1703 | 0.275
NCI-H1563 | 0.77
ABC-1 | 0.356
NCI-H727 | 1.18

compound: CN1CCC(CC1)OC2=CC(=C(C=C2)NC3=NC=C4C(=N3)N(C(=O)N4C)C5CCCC5)OC [AZ3146] + Cc1nc(Nc2ncc(C(=O)Nc3c(C)cccc3Cl)s2)cc(N2CCN(CCO)CC2)n1 [Dasatinib] (partner 0.075 µM); assay: as above; settings: first compound 0.08 µM
Method in brief: as §1

Cell Line | relative viability
NCI-H522 | 0.721
NCI-H1623 | 0.482
PC-14 | 0.271
NCI-H1666 | 0.799
EKVX | 0.434
NCI-H1755 | 0.492
NCI-H2023 | 0.57
HCC-78 | 0.254
SK-LU-1 | 0.197
PC-3 [JPC-3] | 0.86
